Values quoted from earlier work as cited in US20010031279A1, “Controlled delivery of antidepressants” (priority 1998, published 2001).
Counter-ions that a name gives are not always drawn.

In the case of `CCc1nn(CCCN2CCN(c3cccc(Cl)c3)CC2)c(=O)n1CCOc1ccccc1` [nefazodone hydrochloride, 2-[3-[4-(3-chlorophenyl)-piperazinyl]propyl]-5-ethyl-4-(2-phenoxyethyl)-2H-1,2,4-triazol-3(4H)-one hydrochloride], the “time of peak plasma concentrations after dosing” value (conventional immediate release formulations) is listed as “about one” and the half-life (in vivo) is listed as 2 to 4 h.
